According to ChEMBL document CHEMBL1154003, “Synthesis of boronic acid derivatives of tyropeptin: proteasome inhibitors” (Bioorg Med Chem Lett, 2009):
Activity calls are given as the source filed them. The calls are words filed in the database; no cut-off is given here.

How the values were obtained:
[1] = Inhibition of chymotrypsin-like activity of human 20S proteasome
[2] = Inhibition of peptidylglutamyl-peptide hydrolyzing activity of human 20S proteasome
[3] = Inhibition of trypsin-like activity of human 20S proteasome
PC-3 = experiment: Cytotoxicity against human PC3 cells; assay type: functional, cell-based

SMILES	IC50 [1]	IC50 [2]	IC50 [3]	inhibition (PC-3)
COc1ccc(C[C@H](N)C(=O)N[C@H](C(=O)N[C@@H](Cc2ccccc2)B(O)O)C(C)C)cc1	100 nM	7700 nM	4000 nM	
COc1ccc(CC(C=O)NC(=O)[C@@H](NC(=O)[C@H](Cc2ccc(OC)cc2)NC(=O)Cc2cccc3ccccc23)C(C)C)cc1 (stereo not given in full)	83 nM	> 40000 nM	> 40000 nM	Active
COc1ccc(C[C@H](N)C(=O)N[C@H](C(=O)N[C@@H](CC(C)C)B(O)O)C(C)C)cc1	21 nM	1400 nM	1900 nM	
COc1ccc(C[C@H](NC(=O)Cc2cccc3ccccc23)C(=O)N[C@H](C(=O)N[C@@H](Cc2ccccc2)B(O)O)C(C)C)cc1	4.4 nM	7400 nM	4600 nM	
CC(C)C[C@H](NC(=O)[C@H](Cc1ccccc1)NC(=O)c1cnccn1)B(O)O [BORTEZOMIB]	24 nM	730 nM	> 40000 nM	
COc1ccc(C[C@H](NC(=O)Cc2cccc3ccccc23)C(=O)N[C@H](C(=O)N[C@@H](CC(C)C)B(O)O)C(C)C)cc1	2.6 nM	940 nM	2800 nM	
COc1ccc(C[C@H](NC(=O)[C@@H](NC(=O)[C@H](Cc2ccc(OC)cc2)NC(=O)Cc2cccc3ccccc23)C(C)C)B(O)O)cc1	6.3 nM	> 40000 nM	5600 nM	
COc1ccc(C[C@H](NC(=O)[C@@H](NC(=O)[C@@H](N)Cc2ccc(OC)cc2)C(C)C)B(O)O)cc1	130 nM	16000 nM	3700 nM	
